Reference: patent US20160355544A1, “NOVEL CHOLESTEROL METABOLITE, 5-CHOLESTEN, 3BETA-25-DIOL, DISULFATE (25HCDS) FOR THERAPY OF METABOLIC DISORDERS, HYPERLIPIDEMIA, DIABETES, FATTY LIVERS DISEASES AND ATHEROSCLEROSIS” (priority 2012, published 2016)
Values joined by “and” are separate entries in the source; they are usually repeats but may differ in a detail not shown here. Identical values can stand only once.

Assays:
[1] = test system: Hepatic mRNA Expression involved in lipid metabolism in the Mice Fed a HFD; assay: Relative hepatic mRNA expression of lipid metabolism genes in HFD-fed mice (real-time RT-PCR); format: in vivo, C57BL/6J mice; conditions: 25HCDS 25 mg/kg i.p. once every three days for 6 weeks, HFD vehicle = 1.0, mean ± SD, n = 7
Experimental: (§1) Total RNA was isolated with SV Total RNA Isolation Kit (Promega, Madison, Wis.), which included DNase treatment. Total RNA, 2 μg, was used for the first-strand cDNA synthesis as recommended by the manufacturer (Invitrogen, Carlsbad, Calif.). Real-time RT-PCR was performed using a suitable dye as indicator on ABI 7500 Fast Real-Time PCR System (Applied Biosystems, Foster City, Calif.). All primer/probe sets for real-time PCR were TaqMan gene expression assays (Applied Biosystems, Foster City, Calif.). Amplifications of β-actin and glyceraldehyde 3-phosphate dehydrogenase (GAPDH) were used as internal controls. Relative messenger RNA (mRNA) expression was quantified with the comparative cycle threshold (Ct) method and was expressed as 2^−ΔΔct. The sequences of suitable primers for amplification are described, for example, in Ren et al., 2007 (1).
(§2) Animal studies were approved by Institutional Animal Care and Use Committee of McGuire Veterans Affairs Medical Center and were conducted in accordance with the Declaration of Helsinki, the Guide for the Care and Use of Laboratory Animals, and all applicable regulations. To examine the effect of 25HCDS on diet-induced lipid accumulation in sera and liver, 8-week-old female C57BL/6J mice (Charles River, Wilmington, Mass.) were fed high fat diet (HFD) (Harlan Teklad, Madison, Wis.) containing 42% kcal from fat, 43% kcal from carbohydrate, 15% kcal from protein and 0.2% cholesterol for 10 weeks. All mice were housed under identical conditions in an aseptic facility and given free access to water and food. At the end of each period, the mice were intraperitoneally injected with vehicle solution (ethanol/PBS; Vehicle), or 25HCDS (25 mg/kg) once every three days for 6 weeks and fasted for overnight; and blood samples were collected. Serum triglyceride, total cholesterol, high density lipoprotein-cholesterol, glucose, alkaline phosphatase (ALK), alanine aminotransferase (ALT), and aspartate aminotransferase (AST) were measured using standard enzymatic techniques in the clinical laboratory at McGuire Veterans Affairs Medical Center. Lipoprotein profiles in sera were analyzed by HPLC as described below.

[2] = Body mass, caloric intake, liver weight and toxicity during long-term treatment of HFD-fed mice; format: in vivo, C57BL/6J mice
Experimental: as §2
To study the effects of long-term treatment of 25HCDS on lipid homeostasis, 8-week-old C57BL/6J female mice were fed a HFD for 10 weeks, and then divided into two groups. One group was treated with 25HCDS and the other with vehicle by peritoneal injection once every three days for six weeks. During the treatment, the mice were fed a HFD, and body mass and caloric intakes were monitored. […] After 6 weeks of injections, the mice were fasted overnight, and sacrificed.

[3] = test system: THP-1 macrophages; assay: mRNA levels in THP-1 macrophages by real-time RT-PCR; format: cell-based, Human
Experimental: Human THP-1 monocytes and HepG2 cells were purchased from the American Type Culture Collection (ATCC, Manassas, Va.) and maintained according to the supplier's protocols. THP-1 monocytes were differentiated to macrophages by adding 100 nM of phorbol 12-myristate 13-acetate (PMA). When cells reached ˜90% confluence, 25HCDS in ethanol (the final concentration of ethanol in media was 0.1%) was added. The cells were harvested at the indicated times for protein, mRNA, and lipid analysis.
as §1

[4] = test system: HFD-fed mice; assay: Quantification of hepatic lipids in mouse NAFLD model (HFD-fed mice); format: in vivo, C57BL/6J mice
Experimental: as §2
Liver tissues were homogenized, and lipids were extracted with a mixture of chloroform and methanol (2:1), and filtered. The extracts, 0.2 ml, were evaporated to dryness and dissolved in 100 μl of isopropanol containing 10% of TRITON™ X-100 (C14H22O(C2H4O)n), a nonionic surfactant) for cholesterol assay (Wako Chemicals USA, Richmond, Va.), the NEFA solution (0.5 g of EDTA-Na2, 2 g of TRITON™ X-100, 0.76 ml of IN NaOH, and 0.5 g of sodium azide/l, pH 6.5) for free fatty acid assay (Wako Chemicals USA, Richmond, Va.), or isopropanol only for triglyceride assay (Fisher Scientific, Pittsburgh, Pa.). All of the assays were performed according to the manufacturer's instructions, respectively. Each lipid concentration was normalized to liver weight.

[5] = test system: Hepatic mRNA Expression involved in inflammatory responses in the Mice Fed a HFD; assay: Relative hepatic mRNA expression of inflammatory response genes in HFD-fed mice (real-time RT-PCR); format: in vivo, C57BL/6J mice
Experimental: as §1, §2

[6] = test system: PPARγ; assay: PPARγ mRNA regulation by 25HC3S (comparison in discussion); conditions: administration of 25HC3S, compared with 25HCDS
[7] = Liver function assays in sera of HFD-fed mice; format: in vivo, C57BL/6J mice; conditions: data not shown
Experimental: as §2

[8] = HFD-fed mice during 6 weeks of treatment, versus vehicle, data not shown
[9] = in vivo studies, 25HCDS administration
[10] = concentration dependent and time dependent, FIG. 5A
[11] = HFD-fed mice, 25 mg/kg i.p. once every three days for 6 weeks, versus HFD vehicle, 25 mg/kg
[12] = 25 mg/kg i.p. once every three days for 6 weeks, versus HFD vehicle
[13] = 25HCDS 25 mg/kg i.p. once every three days for 6 weeks, HFD vehicle = 1.0, mean ± SD, n = 7

With `C[C@H](CCCC(C)(C)OS(=O)(=O)O)[C@H]1CC[C@H]2[C@@H]3CC=C4C[C@@H](OS(=O)(=O)O)CC[C@]4(C)[C@H]3CC[C@]12C` [25HCDS, 5-cholesten-3β, 25-diol, disulfate] the “ACC1 relative hepatic mRNA expression” value [1] was 0.86 ± 0.18, the “CD36 relative hepatic mRNA expression” value [1] was 0.69 ± 0.29 and the “FAS relative hepatic mRNA expression” value [1] was 0.68 ± 0.17. The “GPAM relative hepatic mRNA expression” value [1] was 0.74 ± 0.18, the “HMGR relative hepatic mRNA expression” value [1] was 0.84 ± 0.07 and the “LDLR relative hepatic mRNA expression” value [1] was 0.62 ± 0.08. The “MTTP relative hepatic mRNA expression” value [1] was 0.94 ± 0.17, the “PLTP relative hepatic mRNA expression” value [1] was 0.68 ± 0.21 and the “SREBP-1c relative hepatic mRNA expression” value [1] was 0.64 ± 0.14. The “SREBP-2 relative hepatic mRNA expression” value [1] was 1.12 ± 0.25, the body mass [2, 8] was “No significant difference” and the caloric intakes [2, 8] was “No significant difference”. The liver weights ([2]; after 6 weeks of injections, data not shown) was “did not show significant differences”, the toxicity [2, 9] was “without exhibiting toxicity” and the “PPARγ mRNA levels” value ([3]; FIG. 5C, 5D) was “linearly increased”. For the same compound, the “expression of SREBP1/2” value ([3]; FIGS. 5A and 5B) was “decreases”, the IκBα expression ([3]; at an early stage and at low concentrations) was “coincidently increased” and the “ACC mRNA levels” value [3, 10] was “decreases”. For the same compound, the “FAS mRNA levels” value [3, 10] was “decreases”, the “HMG-CoA reductase mRNA levels” value ([3]; concentration dependent and time dependent, FIG. 5B) was “decreases” and the “decrease of total cholesterol in liver tissue” value ([4]; HFD-fed mice, 25 mg/kg i.p. once every three days for 6 weeks, versus HFD vehicle) was 30%. The “decrease of free fatty acids in liver tissue” value [4, 11] was 20% and 25%, the “decrease of triglycerides in liver tissue” value [4, 11] was 18% and 20% and the “decrease of hepatic neutral lipids” value [4, 9] was 20-35%. For the same compound, the “increase of PGC-1α expression in the liver” value [5, 12] was 2 fold, the “suppression of IL1β expression in liver” value [5, 12] was 36% and the “suppression of TNFα expression in liver” value [5, 12] was 50%. The “IL1α relative hepatic mRNA expression” value [5, 13] was 1.02 ± 0.20, the “IL1β relative hepatic mRNA expression” value [5, 13] was 0.64 ± 0.16 and the “IkBα relative hepatic mRNA expression” value [5, 13] was 1.35 ± 0.27. For the same compound, the “PGC-1α relative hepatic mRNA expression” value [5, 13] was 2.11 ± 0.82, the “PPARα (Peroxisome proliferator-activated receptor gamma) relative hepatic mRNA expression” value [5, 13] was 1.27 ± 0.52 and the “TNFv (Tumor necrosis factor a) relative hepatic mRNA expression” value [5, 13] was 0.50 ± 0.21.

For `C[C@H](CCCC(C)(C)O)[C@H]1CC[C@H]2[C@@H]3CC=C4C[C@@H](OS(=O)(=O)O)CC[C@]4(C)[C@H]3CC[C@]12C` [25HC3S, 5-Cholesten-3β, 25-diol 3-sulfate], the “PPARγ mRNA” value [6] was “only slightly increases” and the “alkaline phosphatase activity in sera” value [7] was “decreasing”.
